The numbers were not newly measured in patent US3972859A, “Novel decapeptide amide analogs of leuteinizing hormone-releasing hormone” (Takeda Chemical Industries, Ltd., priority 1974, dated 1976), which cites them from elsewhere.

The data set relates to LH-RH activity. As to conditions: relative to parent LH-RH; literature (Monahan et al 1973).

Take [D-Ala^6 ]LH-RH: the “potency, % of the potency of the parent LH-RH” value is listed as 350-450%.
